# Legend:
# histamine H1 = histamine H1 (Homo sapiens, UniProt P35367); assay: histamine H1 antagonism
# [1] = target: alpha-1 adrenergic receptor; assay: alpha-1 adrenergic receptor radioligand binding assay ([125I]-HEAT, rat cerebral cortex membranes); settings: radioligand used at 40 pM
# Experimental: The inhibitory properties of agents of the invention on binding of the alpha-1 adrenergic receptor can be determined in the following assay:
# Cerebral cortices from male Sprague-Dawley rats (175-200 g) are dissected and homogenised in 10 volumes of ice cold 0.32 M sucrose (containing 1 mM MgCl2 dihydrate and 1 mM K2HPO4) with a glass/Teflon homogeniser. The membranes are centrifuged at 1000×g for 15 miN, the pellet discarded and the centrifugation repeated. The supernatants are pooled and centrifuged at 18,000×g for 15 minutes. The pellet is osmotically shocked in 10 volumes of water and kept on ice for 30 minutes. The suspension is centrifuged at 39,000×g for 20 minutes, resuspended in Krebs-Henseleit buffer pH 7.4 (1.17 mM MgS04 anhydrous, 4.69 mM KCl, 0.7 mM K2HPO4 anhydrous, 0.11 M NaCl, 11 mM D-glucose and 25 mM NaHCO3) containing 20 mM Tris, and kept for 2 days at −20° C. The membranes are then thawed at 20-23° C., washed three times with Krebs-Henseleit buffer by centrifugation at 18,000×g for 15 minutes, left overnight at 4° C. and washed again three times. […]
# The resulting membranes are subjected to a radioligand binding assay. […] Following drying of the plates for 3 h. at 50° C., 40 μl of Microscint 20 is added to each well, the plates incubated at room temperature for a further 20 minutes and the retained radioactivity quantified in a Packard TopCount NXT™ scintillation counter. […]
# Chain of histamine H1 (P35367 whole entry): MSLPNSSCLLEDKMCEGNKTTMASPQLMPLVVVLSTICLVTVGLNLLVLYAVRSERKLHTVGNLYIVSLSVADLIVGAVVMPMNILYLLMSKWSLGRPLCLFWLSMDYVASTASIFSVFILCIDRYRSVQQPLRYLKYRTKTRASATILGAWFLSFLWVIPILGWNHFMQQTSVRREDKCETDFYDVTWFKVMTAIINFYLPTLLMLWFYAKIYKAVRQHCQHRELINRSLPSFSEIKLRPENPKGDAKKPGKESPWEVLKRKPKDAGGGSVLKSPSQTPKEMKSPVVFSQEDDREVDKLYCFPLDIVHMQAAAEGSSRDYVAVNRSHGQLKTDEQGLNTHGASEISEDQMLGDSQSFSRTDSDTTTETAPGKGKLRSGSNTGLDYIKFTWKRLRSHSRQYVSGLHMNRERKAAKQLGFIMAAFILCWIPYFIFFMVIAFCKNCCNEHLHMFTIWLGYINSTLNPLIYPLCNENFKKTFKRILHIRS
Structure (SMILES),histamine H1 antagonist activity (histamine H1),Kd [1]
"CCc1nnc(NC(=O)N[C@H](CO)CCN2CC(Sc3ccc(Cl)cc3)C2)s1 [Example 19, 1-{(S)-3-[3-(4-Chloro-phenylsulfanyl)-azetidin-1-yl]-1-hydroxymethyl-propyl}-3-(5-ethyl-[1,3,4]thiadiazol-2-yl)-urea]",histamine H1 antagonists,
O=C1c2ccccc2CCC1CNCCc1ccc(O)c(I)c1 (stereo not drawn) [[^125I]-HEAT],,0.0589 ± 0.0187 nM
"CCc1nnc(NC(=O)N[C@@H]2CCCC[C@@H]2CN2CC(Oc3ccc(Cl)cc3)C2)s1 (racemic) [Example 31, (+/−)1-{(1R,2R)-2-[3-(4-Chloro-phenoxy)-azetidin-1-yl-methyl]-cyclohexyl}-3-(5-ethyl-[1,3,4]thiadiazol-2-yl)-urea]",histamine H1 antagonists,

# From patent publication US20070043013A1, “1,3 Disubstituted azetidine derivatives for use as ccr-3 receptor antagonists in the treatment of inflammatory and allergic diseases” (priority 2003, published 2007)
